Numbered stars: 1 amine (or outer) side, 2 acyl side, 3 side chain; on linkers, the order of the positions; unused ones are H or OH. Bridge positions count the residues as written; N and C are the ends. Square brackets hold non-standard residues; d marks the D form. Side chains are listed from the residue outwards. Peptide text beside a SMILES is read from it. I, II: the chains in the order shown. * marks the point of attachment. C18 diacid = O=C(O)CCCCCCCCCCCCCCCCC(=O)*; γGlu = O=C(O)[C@H](CCC(=O)[*:2])N[*:1]; Ac4c = NC1(C(=O)O)CCC1; AEEA = NCCOCCOCC(=O)O; Aib = CC(C)(N)C(=O)O
Key:
DIO mice = experiment: In vivo test in diet-induced obese (DIO) mice: body weight and blood glucose; set-up: species or system c57bl/6J mice
Excerpt: The purpose of this experiment was to investigate effect of the glucagon-GLP-1R co-agonists from Example 8 and Example 12 on body weight and blood glucose in vivo in DIO mice. Liraglutide (a human GLP-1 analogue marketed by Novo Nordisk NS under the brand name VictozaTM) was included for comparison. Male […]/6J mice obtained from Jackson Lab (USA) were fed a high fat diet (Research Diets D12451, 45% kcal fat) to obtain approximately 50% overweight compared to age-matched lean control mice. The DIO mice are characterized by normoglycemia, insulin resistance and obesity. […] The co-agonists, i.e. the glucagon derivatives, were dissolved in 50 mM Na2HPO4, 145 mM NaCl og 0.05% Tween 80, pH 7.4, while liraglutide was diluted from 6 mg/ml VictozaTM pens in DPBS buffer (Invitrogen) containing 0.5% rat serum albumin. Vehicle treated animals received 50 mM Na2HPO4, 145 mM NaCl og 0.05% Tween 80, pH 7.4. Compounds and vehicle were dosed (1 ml/kg) for 5 weeks s.c. once daily just prior to lights out. For the first half of the study co-agonists were administered at a dose of 5 nmol/kg and for the second half of the study co-agonists were administered at a dose of 10 nmol/kg. For comparison, liraglutide at a dose of 100 nmol/kg, likewise dosed s.c. once daily, was included. Body weight was monitored before dosing, daily during the dosing period. Non-fasted blood glucose was measured on the day of initiation of dosing and weekly during the dosing period, prior to dosing. Blood for measurement of blood glucose was taken from the tail tip capillary and blood glucose was measured using a glucose analyzer (Biosen 5040) based on the glucose oxidase method. The body weight reduction/body weight at the end of the 5 week treatment period and area under the blood glucose curve during the five week treatment period are given in the tables below.

human glucagon receptor = target: T1, human glucagon receptor (Homo sapiens, UniProt P47871); experiment: Glucagon receptor potency, CRE luciferase reporter gene assay in BHK cells; assay type: cell-based; conditions: BHK cells expressing human glucagon receptor, read-out: EC50 GlucR
T1 construct: expressed in transfected cells; host or cells: BHK cells (parent BHK570, CRE luciferase clone BHK/KZ10-20-48), clone pLJ6'-4-25
Method in brief: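 Stably transfected BHK cells (BHK570 background) expressing human glucagon receptor with CRE-firefly luciferase reporter, 5×10EE3 cells/well in DMEM/HEPES with 2% ovalbumin and 0.2% Pluronic F-68. Compounds 1×10EE-13 to 1×10EE-6 M final, 3 h at 37 °C; luminescence read, EC50 from four-parameter fit, in pM.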

T1 sequence (P47871 26-477): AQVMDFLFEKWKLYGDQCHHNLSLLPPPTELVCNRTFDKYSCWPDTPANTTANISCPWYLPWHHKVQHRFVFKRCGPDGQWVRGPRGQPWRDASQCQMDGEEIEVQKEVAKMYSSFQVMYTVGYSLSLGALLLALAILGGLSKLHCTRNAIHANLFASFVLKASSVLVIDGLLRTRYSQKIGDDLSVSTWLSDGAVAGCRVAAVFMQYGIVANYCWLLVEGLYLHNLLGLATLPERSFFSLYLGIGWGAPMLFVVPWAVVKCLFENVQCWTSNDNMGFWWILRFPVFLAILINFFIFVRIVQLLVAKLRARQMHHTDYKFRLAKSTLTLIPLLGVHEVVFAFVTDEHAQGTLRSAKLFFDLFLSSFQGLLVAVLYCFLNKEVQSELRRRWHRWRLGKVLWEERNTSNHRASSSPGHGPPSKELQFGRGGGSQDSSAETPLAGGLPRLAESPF

Row | SMILES | EC50 (human glucagon receptor) [nM] | lowering of body weight in vivo (DIO mice; 5 weeks s.c. once daily) | Percent BW of baseline at week 5 (mean ± SD) (DIO mice; s.c. once daily 5 weeks, co-agonists 5 then 10 nmol/kg, liraglutide 100 nmol/kg)
1 | CC(C)C[C@H](NC(=O)[C@H](CC(C)C)NC(=O)[C@H](Cc1c[nH]c2ccccc12)NC(=O)[C@H](CCC(N)=O)NC(=O)[C@@H](NC(=O)[C@H](Cc1ccccc1)NC(=O)[C@H](CCC(=O)O)NC(=O)[C@H](CCCNC(=N)N)NC(=O)[C@H](C)NC(=O)[C@H](CCCNC(=N)N)NC(=O)[C@H](CCCNC(=N)N)NC(=O)[C@H](CO)NC(=O)[C@H](CC(=O)O)NC(=O)[C@H](CC(C)C)NC(=O)[C@H](Cc1ccc(O)cc1)NC(=O)[C@H](CCCCN)NC(=O)[C@H](CO)NC(=O)[C@H](CC(C)C)NC(=O)[C@H](CC(=O)O)NC(=O)[C@H](CO)NC(=O)[C@@H](NC(=O)[C@H](Cc1ccccc1)NC(=O)[C@@H](NC(=O)CNC(=O)[C@H](CCC(N)=O)NC(=O)C(C)(C)NC(=O)[C@@H](N)Cc1c[nH]cn1)[C@@H](C)O)[C@@H](C)O)C(C)C)C(=O)N[C@@H](CC(N)=O)C(=O)N[C@@H](CCCCNC(=O)CC[C@H](NC(=O)CC[C@H](NC(=O)COCCOCCNC(=O)COCCOCCNC(=O)CC[C@H](NC(=O)CCCCCCCCCCCCCCCCC(=O)O)C(=O)O)C(=O)O)C(=O)O)C(N)=O [Example 12, N^ε29-[(4S)-4-carboxy-4-[[(4S)-4-carboxy-4-[[2-[2-[2-[[2-[2-[2-[[(4S)-4-carboxy-4-(17-carboxyheptadecanoylamino)butanoyl]amino]ethoxy]ethoxy]acetyl]amino]ethoxy]ethoxy]acetyl]amino]butanoyl]amino]butanoyl]-[Aib2,Leu10,Arg20,Glu21,Leu27,Lys29]-Glucagon amide] (H-H[Aib]QGTFTSDLSKYLDSRRAREFVQWLLNK([γGlu-γGlu-AEEA-AEEA-γGlu-C18 diacid])-NH2) |  | tends to be superior to liraglutide alone | 75% ± 8%
2 | CC(C)C[C@H](NC(=O)[C@H](Cc1ccc(O)cc1)NC(=O)[C@H](CCCCN)NC(=O)[C@H](CO)NC(=O)[C@H](CC(C)C)NC(=O)[C@H](CC(=O)O)NC(=O)[C@H](CO)NC(=O)[C@@H](NC(=O)[C@H](Cc1ccccc1)NC(=O)[C@@H](NC(=O)CNC(=O)[C@H](CCC(N)=O)NC(=O)C1(NC(=O)[C@@H](N)Cc2c[nH]cn2)CCC1)[C@@H](C)O)[C@@H](C)O)C(=O)N[C@@H](CCC(=O)O)C(=O)N[C@@H](CO)C(=O)N[C@@H](CCCNC(=N)N)C(=O)N[C@@H](CCCNC(=N)N)C(=O)N[C@@H](C)C(=O)N[C@@H](CCC(N)=O)C(=O)N[C@@H](CC(=O)O)C(=O)N[C@@H](Cc1ccccc1)C(=O)N[C@H](C(=O)N[C@@H](CCC(N)=O)C(=O)N[C@@H](Cc1c[nH]c2ccccc12)C(=O)N[C@@H](CC(C)C)C(=O)N[C@@H](CC(C)C)C(=O)N[C@@H](CCCCNC(=O)COCCOCCNC(=O)COCCOCCNC(=O)CC[C@H](NC(=O)CC[C@H](NC(=O)CC[C@H](NC(=O)CCCCCCCCCCCCCCCCC(=O)O)C(=O)O)C(=O)O)C(=O)O)C(=O)N[C@H](C(N)=O)[C@@H](C)O)C(C)C [Example 63, N^ε28-[2-[2-[2-[[2-[2-[2-[[(4S)-4-carboxy-4-[[(4S)-4-carboxy-4-[[(4S)-4-carboxy-4-(17-carboxyheptadecanoylamino)butanoyl]amino]butanoyl]amino]butanoyl]amino]ethoxy]ethoxy]acetyl]amino]ethoxy]ethoxy]acetyl]-[Acb2,Leu10,Glu15,Leu27,Lys28]-Glucagon amide] (H-H[Ac4c]QGTFTSDLSKYLESRRAQDFVQWLLK([AEEA-AEEA-γGlu-γGlu-γGlu-C18 diacid])T-NH2; N-terminus assumed) | 0.024 |  | 
3 | CC(C)C[C@H](NC(=O)[C@H](Cc1ccc(O)cc1)NC(=O)[C@H](CCCCN)NC(=O)[C@H](CO)NC(=O)[C@H](CC(C)C)NC(=O)[C@H](CC(=O)O)NC(=O)[C@H](CO)NC(=O)[C@@H](NC(=O)[C@H](Cc1ccccc1)NC(=O)[C@@H](NC(=O)CNC(=O)[C@H](CCC(N)=O)NC(=O)C(C)(C)NC(=O)[C@@H](N)Cc1c[nH]cn1)[C@@H](C)O)[C@@H](C)O)C(=O)N[C@@H](CCC(=O)O)C(=O)N[C@@H](CO)C(=O)N[C@@H](CCCNC(=N)N)C(=O)N[C@@H](CCCNC(=N)N)C(=O)N[C@@H](C)C(=O)N[C@@H](CCCNC(=N)N)C(=O)N[C@@H](CCC(=O)O)C(=O)N[C@@H](Cc1ccccc1)C(=O)N[C@H](C(=O)N[C@@H](CCC(N)=O)C(=O)N[C@@H](Cc1c[nH]c2ccccc12)C(=O)N[C@@H](CC(C)C)C(=O)N[C@@H](CC(C)C)C(=O)N[C@@H](CCCCNC(=O)COCCOCCNC(=O)COCCOCCNC(=O)CC[C@H](NC(=O)CC[C@H](NC(=O)CC[C@H](NC(=O)CCCCCCCCCCCCCCCCC(=O)O)C(=O)O)C(=O)O)C(=O)O)C(=O)N[C@H](C(N)=O)[C@@H](C)O)C(C)C [Example 42, N^ε28-[2-[2-[2-[[2-[2-[2-[[(4S)-4-carboxy-4-[[(4S)-4-carboxy-4-[[(4S)-4-carboxy-4-(17-carboxyheptadecanoylamino)butanoyl]amino]butanoyl]amino]butanoyl]amino]ethoxy]ethoxy]acetyl]amino]ethoxy]ethoxy]acetyl]-[Aib2,Leu10,Glu15,Arg20,Glu21,Leu27,Lys28]-Glucagon amide] (H-H[Aib]QGTFTSDLSKYLESRRAREFVQWLLK([AEEA-AEEA-γGlu-γGlu-γGlu-C18 diacid])T-NH2; N-terminus assumed) | 0.032 |  | 

Second part, led by results:

Row | EC50 (human glucagon receptor) [nM] | SMILES | lowering of body weight in vivo (DIO mice; 5 weeks s.c. once daily) | Percent BW of baseline at week 5 (mean ± SD) (DIO mice; s.c. once daily 5 weeks, co-agonists 5 then 10 nmol/kg, liraglutide 100 nmol/kg)
4 | 0.0447 | CC(C)C[C@H](NC(=O)[C@H](Cc1ccc(O)cc1)NC(=O)[C@H](CCCCN)NC(=O)[C@H](CO)NC(=O)[C@H](CC(C)C)NC(=O)[C@H](CC(=O)O)NC(=O)[C@H](CO)NC(=O)[C@@H](NC(=O)[C@H](Cc1ccccc1)NC(=O)[C@@H](NC(=O)CNC(=O)[C@H](CCC(N)=O)NC(=O)C(C)(C)NC(=O)[C@@H](N)Cc1c[nH]cn1)[C@@H](C)O)[C@@H](C)O)C(=O)N[C@@H](CCC(=O)O)C(=O)N[C@@H](CO)C(=O)N[C@@H](CCCCN)C(=O)N[C@@H](CCCNC(=N)N)C(=O)N[C@@H](C)C(=O)N[C@@H](CCCNC(=N)N)C(=O)N[C@@H](CCC(=O)O)C(=O)N[C@@H](Cc1ccccc1)C(=O)N[C@H](C(=O)N[C@@H](CCC(N)=O)C(=O)N[C@@H](Cc1c[nH]c2ccccc12)C(=O)N[C@@H](CC(C)C)C(=O)N[C@@H](CC(C)C)C(=O)N[C@@H](CCCCNC(=O)CNC(=O)[C@H](CO)NC(=O)[C@H](CCC(=O)O)NC(=O)CNC(=O)[C@H](CO)NC(=O)CC[C@H](NC(=O)CC[C@H](NC(=O)CCCCCCCCCCCCCCCCC(=O)O)C(=O)O)C(=O)O)C(=O)N[C@H](C(N)=O)[C@@H](C)O)C(C)C [Example 25, N^ε28-[2-[[(2S)-2-[[(2S)-4-carboxy-2-[[2-[[(2S)-2-[[(4S)-4-carboxy-4-[[(4S)-4-carboxy-4-(17-carboxyheptadecanoylamino)butanoyl]amino]butanoyl]amino]-3-hydroxypropanoyl]amino]acetyl]amino]butanoyl]amino]-3-hydroxypropanoyl]amino]acetyl]-[Aib2,Leu10,Glu15,Lys17,Arg20,Glu21,Leu27,Lys28]-Glucagon amide] (I: H-H[Aib]QGTFTSDLSKYLESKRAREFVQWLLKT-NH2 / II: {C18 diacid-γGlu-γGlu}-SGESG; amide I:28-II:C; N-terminus assumed) |  | 
5 | 0.016 | CC(C)C[C@H](NC(=O)[C@H](Cc1ccc(O)cc1)NC(=O)[C@H](CCCCN)NC(=O)[C@H](CO)NC(=O)[C@H](CC(C)C)NC(=O)[C@H](CC(=O)O)NC(=O)[C@H](CO)NC(=O)[C@@H](NC(=O)[C@H](Cc1ccccc1)NC(=O)[C@@H](NC(=O)CNC(=O)[C@H](CCC(N)=O)NC(=O)C(C)(C)NC(=O)[C@@H](N)Cc1c[nH]cn1)[C@@H](C)O)[C@@H](C)O)C(=O)N[C@@H](CCC(=O)O)C(=O)N[C@@H](CO)C(=O)N[C@@H](CCCCN)C(=O)N[C@@H](CCCNC(=N)N)C(=O)N[C@@H](C)C(=O)N[C@@H](CCCNC(=N)N)C(=O)N[C@@H](CCC(=O)O)C(=O)N[C@@H](Cc1ccccc1)C(=O)N[C@H](C(=O)N[C@@H](CCC(N)=O)C(=O)N[C@@H](Cc1c[nH]c2ccccc12)C(=O)N[C@@H](CC(C)C)C(=O)N[C@@H](CC(C)C)C(=O)N[C@@H](CCCCNC(=O)CC[C@H](NC(=O)CC[C@H](NC(=O)[C@H](CO)NC(=O)[C@H](CCC(=O)O)NC(=O)[C@H](CO)NC(=O)CC[C@H](NC(=O)CC[C@H](NC(=O)CCCCCCCCCCCCCCCCC(=O)O)C(=O)O)C(=O)O)C(=O)O)C(=O)O)C(=O)N[C@H](C(N)=O)[C@@H](C)O)C(C)C [Example 52] (H-H[Aib]QGTFTSDLSKYLESKRAREFVQWLLK([γGlu-γGlu-Ser-Glu-Ser-γGlu-γGlu-C18 diacid])T-NH2; N-terminus assumed) |  | 

Reference: patent US9474790B2, “Stable, protracted GLP-1/glucagon receptor co-agonists for medical use” (Novo Nordisk A/S, priority 2013, dated 2016)
